Experimental data from US20080045580A1, “Novel Isoxazole Compounds Having Ppar Agonist Activity” (DR REDDY'S LABORATORIES LIMITED, priority 2004, published 2008).

Tests used:
[1] = target: T1, human PPARγ1 (Homo sapiens, UniProt P37231); experiment: in vitro PPARγ transactivation (GAL4-LBD luciferase reporter in HEK-293 cells); assay type: cell-based
T1 construct: expressed in transfected cells; host or cells: HEK-293
T1 sequence (P37231 238-503 limits assumed): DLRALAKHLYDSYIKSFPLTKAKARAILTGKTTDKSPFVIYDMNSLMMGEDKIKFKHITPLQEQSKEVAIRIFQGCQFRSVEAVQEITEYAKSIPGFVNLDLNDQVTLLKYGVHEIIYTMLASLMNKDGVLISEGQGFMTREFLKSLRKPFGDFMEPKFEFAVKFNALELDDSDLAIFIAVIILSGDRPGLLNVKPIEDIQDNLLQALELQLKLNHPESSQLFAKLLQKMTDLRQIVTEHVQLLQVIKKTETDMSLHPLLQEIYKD
Source text: (§1) The following procedure was used for in vitro determination of PPARα, γ and δ transactivation.
(§2) The ligand binding domain of human PPARγ1, PPARα or PPARδ was fused to the C-terminal end of DNA binding domain of yeast transcription factor GAL4 in eukaryotic expression vector. Using SuperFect (Qiagen), HEK-293 cells were transfected with this plasmid and a reporter plasmid harboring the luciferase gene driven under the control of 5 tandem GLA4 response elements. In some experiments, pAdVantage vector (Promega) was used to enhance luciferase expression. Compounds were added approximately 48 hours after transfection at various concentrations and incubated overnight. The cells were lysed and the luciferase activity was measured using the LucLite kit in Top Count (Packard). Luciferase activity was expressed as fold activation relative to untreated cells in the same experiment.

[2] = tested on: Male Swiss albino mice; experiment: plasma triglyceride lowering in Swiss albino mice; assay type: in vivo; details: plasma triglycerides
Description: Male Swiss albino mice (SAM) were obtained from National Institute Nutrition (NIN, Hyderabad, India) and housed in Dr. Reddy's Laboratories Ltd (DRL) animal house. All these animals were maintained under 12 hour light and dark cycle at 25±1° C. Animals were given standard laboratory chow (NIN, Hyderabad, India) and water, ad libitum. Mice of 20-25 grams body weight range were used. See Olivier, et al., Atherosclerosis, 1988, 70:107-114, incorporated herein by reference in its entirety. The test compounds were administered orally to mice at the doses shown in the following in table for 6 days. […] After centrifugation, plasma was separated for plasma triglyceride and total cholesterol measurement. See Wieland, Methods of Enzymatic Analysis, Bergermeyer, ed., 1963, 211-214; Trinder, Ann. Clin. Biochenz., 1969, 6:24-27, incorporated herein by reference in their entireties. Measurement of cholesterol and plasma triglyceride was done using a […] autoanalyser (Merck). The percent reductions in plasma triglycerides (TG)/total cholesterol were calculated according to the following formula: [formula] OC=Zero day control group value OT=Zero day treated group value TC=Test day control group value TT=Test day treated group value.

[3] = target: T2, human PPARα (Homo sapiens, UniProt Q07869); experiment: in vitro PPARα transactivation (GAL4-LBD luciferase reporter in HEK-293 cells); assay type: cell-based
T2 construct: expressed in transfected cells; host or cells: HEK-293
T2 sequence (Q07869 239-466 limits assumed): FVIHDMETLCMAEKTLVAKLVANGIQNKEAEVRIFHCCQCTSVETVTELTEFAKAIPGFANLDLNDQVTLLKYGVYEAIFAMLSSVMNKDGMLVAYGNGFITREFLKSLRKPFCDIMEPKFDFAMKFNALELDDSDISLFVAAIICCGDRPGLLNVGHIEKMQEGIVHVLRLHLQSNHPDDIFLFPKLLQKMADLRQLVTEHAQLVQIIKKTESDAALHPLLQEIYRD
Source text: Generally, suitable PPAR agonists are believed to be useful for attenuating and/or treatment of diabetic dyslipidemia, metabolic syndrome, diabetes, cardiovascular disease, and obesity. The following procedure was used for in vitro determination of PPARα, γ and δ transactivation.
as §2

[4] = target: T3, human PPARδ (Homo sapiens, UniProt Q03181); experiment: in vitro PPARδ transactivation (GAL4-LBD luciferase reporter in HEK-293 cells); assay type: cell-based
T3 construct: expressed in transfected cells; host or cells: HEK-293
T3 sequence (Q03181 211-439 limits assumed): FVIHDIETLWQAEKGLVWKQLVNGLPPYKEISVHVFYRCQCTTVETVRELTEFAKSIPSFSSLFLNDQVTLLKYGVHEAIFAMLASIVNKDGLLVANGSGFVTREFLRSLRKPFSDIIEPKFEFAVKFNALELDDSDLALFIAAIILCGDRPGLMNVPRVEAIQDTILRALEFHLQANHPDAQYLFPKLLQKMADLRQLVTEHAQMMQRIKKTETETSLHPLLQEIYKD
Source text: as §1, §2

[5] = tested on: hypercholesterolemic Male Sprague Dawley rats; experiment: lipid lowering in hypercholesterolemic Sprague Dawley rats; assay type: in vivo; details: hypercholesterolemic SD rats, 3 mg/kg orally for 3 days; for % Reduction TG: plasma triglycerides; for % Reduction TC: total cholesterol; for % Reduction LDL: LDL cholesterol calculated from TC, HDL, TG; for HDL % increase: values represent % increase
Description: Male Sprague Dawley rats (NIN stock) were bred in DRL animal house. Animals were maintained under 12 hour light and dark cycle at 25±1° C. Rats of 180-200 gram body weight range were used for the experiment. Animals were made hypercholesterolemic by feeding 2% cholesterol and 1% sodium cholate mixed with standard laboratory chow (NIN) for 6 days. Throughout the experimental period the animals were maintained on the same diet. Control rats were treated with vehicle alone (0.25% CMC; 10 ml/kg). Blood samples were collected in fed state 1 hour after drug administration on 0 and 3 days of treatment from the retro-orbital sinus through heparinized capillary tubes containing EDTA. After centrifugation, plasma sample was separated for total cholesterol, HDL and plasma triglyceride measurement. Measurement of total cholesterol, HDL and plasma triglyceride was done using a Vitalab Selectra autoanalyser (Merck). HDL was measured using a commercial kit. LDL and VLDL cholesterol were calculated from the data obtained for total cholesterol, HDL and plasma triglyceride.
The percent reductions in plasma triglycerides (TG)/total cholesterol (TC) were calculated as described in Example 55. The levels of LDL and VLDL cholesterol were calculated according to the following formulas: LDL cholesterol in mg/dl=[Total cholesterol−HDL cholesterol−Triglyceride/5] VLDL cholesterol in mg/dl=[Total cholesterol−HDL cholesterol−LDL cholesterol]

PPARγ luciferase fold activation relative to untreated cells ([1]; 1 μM)	PPARγ luciferase fold activation relative to untreated cells ([1]; 10 μM)	PPARγ luciferase fold activation relative to untreated cells ([1]; 50 μM)	PPARα luciferase fold activation relative to untreated cells ([3]; 1 μM)	PPARα luciferase fold activation relative to untreated cells ([3]; 10 μM)	PPARα luciferase fold activation relative to untreated cells ([3]; 50 μM)	PPARδ luciferase fold activation relative to untreated cells ([4]; 1 μM)	PPARδ luciferase fold activation relative to untreated cells ([4]; 10 μM)	PPARδ luciferase fold activation relative to untreated cells ([4]; 50 μM)	melting point	Compound	% reduction in TG ([2]; 3 mg/kg orally for 6 days)	% reduction in TG ([2]; 1 mg/kg orally for 6 days)	% Reduction TG [5]	% Reduction TC [5]	% Reduction LDL [5]	HDL % increase [5]
0.9	1.2	6.4	1.7	3.8	6.0	9.0	10	33		CCC(C)(Oc1ccc(OCc2cc(-c3ccc(OS(C)(=O)=O)cc3)no2)cc1)C(=O)O (centres unmarked) [Example 5]	75%					
4.3	9.8	13.5	4.1	4.9	5.4	0.9	26.4	23.2		O=C(O)C1(Cc2ccc(OCc3cc(-c4ccc(C(F)(F)F)cc4)no3)cc2)CCCO1 (centres unmarked) [Example 36]		26%	63%	52%	62%	128%
0.9	3.5	9.5	4.0	5.7	5.1	7.5	23	47	115 to 117 °C	CCC(C)(Oc1ccc(OCCCc2cc(-c3ccccc3)no2)cc1)C(=O)O (centres unmarked) [Example 10]	75%					
2.4	2.7	3.6	4.1	4.0	4.0				136 to 138 °C	CCC(C)(Oc1ccc(OCc2cc(-c3ccc(C(F)(F)F)cc3)no2)cc1)C(=O)O (centres unmarked) [Example 11]	65%		55%	71%	76%	139%
